Laboratory results from patent publication US11180530B2, “Salt of phenylpropionamide derivative and preparation method therefor” (priority 2017, dated 2021).
Like-named read-outs stand apart in the source and are kept apart here. Where a SMILES comes first, the peptide text is derived from it. [ ]: non-standard residue; d: D form. The star is where a group is joined. Gly(N-(2R-Ph-propyl)) = C[C@@H](CNCC(=O)O)c1ccccc1; Piperidin1yl(4-NH2,4-COOH) = NC1(C(=O)O)CCN(*)CC1

Experiments:
[1] = assay type: physicochemical; conditions: for Stability (conclusion in words): illumination and high temperature
Method: Samples of the compound represented by formula (I) and acetate, hydrochloride, citrate and phosphate of the compound represented by formula (I) were respectively placed open and evenly spread, so that the stability of the samples were investigated under the conditions of room temperature, heating (40° C., 60° C.), illumination (4500Lux) and high humidity (RH75% and RH90%). The sampling period is 20 days.

[2] = assay type: physicochemical
Method: Samples of acetate, hydrochloride, citrate and phosphate of the compound represented by formula (I) were subjected to a long-term accelerated stability investigation for 6 months under dark and sealed conditions (the inner package is a medicinal low-density polyethylene composite film and the outer package is aluminum foil), humidity (60% RH), temperature (4° C., 25° C.) and with/without nitrogen protection.

[3] = Canine pharmacokinetic test, intravenous administration; assay type: in vivo; conditions: Beagle dogs
Text: Beagle dogs were used as test animals, and LC/MS/MS methods were used to determine the drug concentration in plasma of Beagle dogs at different time points after intravenous administration of the compound represented by formula (I). To study the pharmacokinetic behavior of the compound of the present invention in Beagle dogs and evaluate its pharmacokinetic characteristics.
3 male beagle dogs provided by Medicilon Pharmaceutical Technology (Shanghai) Co, Ltd in each group.
A proper amount of sample was weighted and 100% normal saline was added for dissolution.
Beagle dogs 3, male, for one group; intravenous administration with a volume of 2 ml/kg after fasting for one night.
For the intravenous administration group, 1.0 ml of blood was collected from jugular vein before and 5 mins, 15 mins, 0.5, 1.0, 2.0, 4.0, 8.0, 12.0, 24.0 hrs after administration, then placed in a heparinized test tube, centrifuged at 3500 rpm for 10 mins to separate plasma, and stored at −80° C.
LC/MS/MS method was used to determine the content of compound in Beagle dog plasma after intravenous administration.

[4] = Solubility (salt formation research); assay type: physicochemical
[5] = system: inflammatory pain induced by carrageenan in rats; experiment: Carrageenan inflammatory pain model, plantar tenderness (Electronic Von Frey); assay type: in vivo, Wistar rats; conditions: for tenderness threshold: 30 min before test, model group 7.6 g
Method: Male Wistar rats for experiment purchased from Shanghai Slack Experimental Animal Co, Ltd. (Shanghai, China, certificate No. 2015000513408, license SOCK (Shanghai) 2012-0002, 150-180 g at the time of purchase, 5 rats/cage, 12/12 hour light/dark cycle adjustment, constant temperature of 23±1° C., humidity of 50-60%, free intake of water. After the animals were purchased, they were reared for more than 7 days to start the experiment.
1% λ-carrageenan mixed with physiological saline and stirred overnight, forming a jelly suspension.
The experimental method was improved according to the method in document 1 (Kazunari Nakao et al.). Before the inflammatory pain experiment, rats were randomly divided into the following groups according to body weight: blank control group, model group, 0.1 mg/kg group and 0.3 mg/kg group. There were 8 rats in each group. Inflammatory pain model was established by subcutaneous injection of 1% carrageenan (100 μl) into the foot pad of Wistar rats. After 4 hours, the rats were tested for plantar tenderness to evaluate their mechanical pain threshold, the rats were administrated single caudal vein administration (1 ml/kg) 30 min before the test, and the control group and model group were given the corresponding solvents.
Electronic Von Frey: UGO BASILE, type 38450.
The experimental data were expressed by Mean±standard deviation (S.D.). Statistical comparison was carried out with Excel software T test.

[6] = 25° C., 60% RH, nitrogen protection, 1 month
[7] = 25° C., 60% RH, nitrogen protection, 3 months
[8] = 25° C., 60% RH, nitrogen protection, 6 months
[9] = 25° C., 60% RH, nitrogen protection, initial

Row | Compound | Purity % ([1]; 4500 Lux, 0 days (initial)) [%] | Purity % ([1]; 4500 Lux, 5 days) [%] | Purity % ([1]; 4500 Lux, 10 days) [%] | Purity % ([1]; 4500 Lux, 20 days) [%] | Purity % ([2]; 4° C., 1 month) [%] | Purity % ([2]; 4° C., 3 months) [%] | Purity % ([2]; 4° C., 6 months) [%] | Purity % ([2]; 4° C., initial) [%] | Purity % [2, 6] [%] | Purity % [2, 7] [%] | Purity % [2, 8] [%] | Purity % [2, 9] [%] | Purity % ([2]; 25° C., 60% Rh, 1 month) [%] | Purity % ([2]; 25° C., 60% Rh, 3 months) [%] | Purity % ([2]; 25° C., 60% Rh, 6 months) [%] | Purity % ([2]; 25° C., 60% Rh, initial) [%] | further results
1 | CC(C)C[C@@H](NC(=O)[C@@H](Cc1ccccc1)NC(=O)CNC[C@H](C)c1ccccc1)C(=O)N[C@H](CCCCN)C(=O)N1CCC(N)(C(=O)O)CC1 [Embodiment 9, 4-amino-1-((2R,5R,8R,14R)-2-(4-aminobutyl)-8-benzyl-5-isobutyl-4,7,10-trioxo-14-phenyl-3,6,9,12-tetraazapentadecan-1-acyl)piperidine-4-carboxylic acid] (H-[Gly(N-(2R-Ph-propyl))][dF][dL][dK]-{Piperidin1yl(4-NH2,4-COOH)}) | 96.50 | 95.57 | 94.27 | 94.24 | 99.51 | 99.51 | 98.57 | 99.54 | 99.52 | 99.50 | 98.54 | 99.54 | 99.46 | 99.51 | 99.51 | 99.54 | Aspect ([2]; 4° C., 1 month): White; Aspect ([2]; 4° C., 3 months): White; Aspect ([2]; 4° C., 6 months): White; Aspect ([2]; 4° C., initial): White
2 | CC(C)C[C@@H](NC(=O)[C@@H](Cc1ccccc1)NC(=O)CNC[C@H](C)c1ccccc1)C(=O)N[C@H](CCCCN)C(=O)N1CCC(N)(C(=O)O)CC1 [Embodiment 15, 4-amino-1-((2R,5R,8R,14R)-2-(4-aminobutyl)-8-benzyl-5-isobutyl-4,7,10-trioxo-14-phenyl-3,6,9,12-tetraazapentadecan-1-acyl)piperidine-4-carboxylic acid] (H-[Gly(N-(2R-Ph-propyl))][dF][dL][dK]-{Piperidin1yl(4-NH2,4-COOH)}) | 96.32 | 96.07 | 95.62 | 95.76 | 99.63 | 99.62 | 99.66 | 99.64 | 9.65 | 99.62 | 99.63 | 99.64 | 99.64 | 99.63 | 99.64 | 99.64 | 
3 | CC(C)C[C@@H](NC(=O)[C@@H](Cc1ccccc1)NC(=O)CNC[C@H](C)c1ccccc1)C(=O)N[C@H](CCCCN)C(=O)N1CCC(N)(C(=O)O)CC1 [Embodiment 20, 4-amino-1-((2R,5R,8R,14R)-2-(4-aminobutyl)-8-benzyl-5-isobutyl-4,7,10-trioxo-14-phenyl-3,6,9,12-tetraazapentadecan-1-acyl)piperidine-4-carboxylic acid] (H-[Gly(N-(2R-Ph-propyl))][dF][dL][dK]-{Piperidin1yl(4-NH2,4-COOH)}) | 99.68 | 97.76 | 97.72 | 97.15 |  |  |  |  |  |  |  |  |  |  |  |  | pharmacokinetic properties (in words) [3]: good; Purity % ([1]; 40° C., 5 days): 97.60%; Stability (conclusion in words) ([1]; 20 days, listed as free state): degraded greatly; solubility (in words) [4]: low; increase range of tenderness threshold compared with the model group ([5]; 0.1 mg/kg i.v.): 79.5%; tenderness threshold ([5]; 0.1 mg/kg i.v. single): 13.7 g; increase range of tenderness threshold compared with the model group ([5]; 0.3 mg/kg i.v.): 204.5%; tenderness threshold ([5]; 0.3 mg/kg i.v. single): 23.2 g
4 | CC(C)C[C@@H](NC(=O)[C@@H](Cc1ccccc1)NC(=O)CNC[C@H](C)c1ccccc1)C(=O)N[C@H](CCCCN)C(=O)N1CCC(N)(C(=O)O)CC1 [Phosphate (1:3)] (H-[Gly(N-(2R-Ph-propyl))][dF][dL][dK]-{Piperidin1yl(4-NH2,4-COOH)}) |  |  |  |  |  |  |  |  |  |  |  |  |  |  |  |  | Stability (conclusion in words) ([1]; 20 days): relatively stable or slightly degraded; Long-term stability (conclusion in words) ([2]; 6 months, 4° C., 25° C., 60% RH, with/without nitrogen protection, amorphous samples): stable
